Values of other authors as cited in patent US20240165002A1, “Compositions Incorporating Avobenzone Complexes” (University of Cincinnati, priority 2022, published 2024).

Assays:
[1] = at 360 nm

- duration of photoprotection once exposed to sun (once exposed to sun): 30 min
- photostability (upon exposure to light, keto-enol tautomerization): poor photostability
- molar absorption coefficient [1]: 33,756 L/(mol·cm)
SMILES: COc1ccc(C(=O)CC(=O)c2ccc(C(C)(C)C)cc2)cc1 [Avobenzone, 1-(4-methoxyphenyl)-3-(4-tertbutylphenyl)-propane-1,3-dione]
